Source: US7612079B2, “2,6,9-substituted purine derivatives and their use in the treatment of proliferative disorders” (Cyclacel Limited, priority 2001, dated 2009)
Values joined by “and” are separate entries in the source; they are usually repeats but may differ in a detail not shown here. Equal values may be shown once.

Assays:
[1] = Metabolic carbinol-carboxyl oxidation; details: remark in Table 1
HCT116 = experiment: 72-h MTT proliferation assay, HCT116; format: cell-based; details: Homo sapiens, HCT-116, read-out: IC50 Cell line HCT116
Excerpt: (§1) Selected compounds from the above examples were subjected to a standard cellular proliferation assay using seven different human tumour cell lines: A2780, A278CisF, CH1, CH1DoxR, HCT116, HT29 and KM12. […] Human tumour cell lines were obtained from the ATCC (American Type Culture Collection, 10801 University Boulevard, Manessas, Va. 20110-2209, USA). The results are shown in Table 1, together with the average IC50 over the seven different cell lines.

KM12 = experiment: 72-h MTT proliferation assay, KM12; format: cell-based; details: Homo sapiens, read-out: IC50 Cell line KM12
Excerpt: as §1

A2780 CisR = experiment: 72-h MTT proliferation assay, A2780 CisR; format: cell-based; details: Homo sapiens, A2780cisR, read-out: IC50 Cell line A2780 CisR
Excerpt: as §1

[2] = system: seven different human tumour cell lines: A2780, A278CisF, CH1, CH1DoxR, HCT116, HT29 and KM12; experiment: 72-h MTT proliferation assay, average over seven cell lines; format: cell-based; details: read-out: IC50 Cell line Average
Excerpt: Selected compounds from the above examples were subjected to a standard cellular proliferation assay using seven different human tumour cell lines: A2780, A278CisF, CH1, CH1DoxR, HCT116, HT29 and KM12.

CH1 = experiment: 72-h MTT proliferation assay, CH1; format: cell-based; details: Homo sapiens, read-out: IC50 Cell line CH1
Excerpt: as §1

A2780 = experiment: 72-h MTT proliferation assay, A2780; format: cell-based; details: Homo sapiens, read-out: IC50 Cell line A2780
Excerpt: as §1

HT29 = experiment: 72-h MTT proliferation assay, HT29; format: cell-based; details: Homo sapiens, HT-29, read-out: IC50 Cell line HT29
Excerpt: as §1

CH1DoxR = experiment: 72-h MTT proliferation assay, CH1DoxR; format: cell-based; details: Homo sapiens, read-out: IC50 Cell line CH1DoxR
Excerpt: as §1

[3] = molecular target: T1, cyclic AMP-dependent kinase (PKA) catalytic subunit (Homo sapiens, UniProt P17612); experiment: PKA kinase assay (Kemptide phosphorylation); format: biochemical; details: Table 2; read-out: Kinase inhibition PKA IC50
T1 construct: purchased Calbiochem 539487
Procedure: The reaction mixture (total volume 50 μl) consisted of 20 mM MOPS, pH 7.2, 25 mM β-glycerophosphate, 5 mM EGTA, 1 mM DTT, 1 mM Na3VO4, 10 mM MgCl2, 100 μM ATP, 0.2 μCi [γ-^32P]-ATP.

CDK4/cyclin D1 = CDK4/cyclin D1 (Homo sapiens, UniProt P11802); experiment: CDK4/cyclin D1 kinase assay (GST-Rb phosphorylation); format: biochemical; details: Table 2; read-out: Kinase inhibition CDK4/cyclin D1 IC50
Procedure: (§2) Assays for CDK2/cyclin E kinase, CDK1/cyclin B and CDK4/cyclin D1 may be carried out by monitoring phosphorylation of GST-Rb in an appropriate system. […] The phosphorylation reaction mixture (total volume 40 μl) consisted of 50 mM HEPES pH 7.4, 20 mM MgCl2, 5 mM EGTA, 2 mM DTT, 20 mM β-glycerophosphate, 2 mM NaF, 1 mM Na3VO4, Protease Inhibitors Cocktail (Sigma, see above), BSA 0.5 mg/ml, 1 μg purified enzyme complex, 10 μl of GST-Rb-Sepharose-beads, 100 μM ATP, 0.2 μCi ^32P-ATP. The reaction is carried out for 30 min at 30° C. at constant shaking. At the end of this period 100 μl of 50 mM HEPES, pH 7.4 and 1 mM ATP is added to each well and the total volume transferred onto GFC filtered plate. The plate is washed 5 times with 200 μl of 50 mM HEPES, pH 7.4 and 1 mM ATP. To each well was added 50 μl scintillant liquid and the radioactivity of the samples is measured on Scintilation counter (Topcount, HP). The IC50 values of different peptides were calculated using GraFit software.

CDK7/cyclin H = CDK7/cyclin H (Homo sapiens, UniProt P50613); experiment: CDK7/cyclin H kinase inhibition; format: biochemical; details: Table 2
mouse ERK-2 = molecular target: T2, mouse ERK-2 (Mus musculus, UniProt P63085); experiment: ERK-2 kinase assay (MBP phosphorylation); format: biochemical; details: Table 2; read-out: Kinase inhibition ERK2 IC50
T2 construct: purchased Upstate Biotechnologies
Procedure: ERK-2 kinase activity was measured by the incorporation of radioactive phosphate into myelin basic protein (MBP), catalysed by purified mouse ERK-2 (Upstate Biotechnologies). The reaction mixture (total volume 50 μL) consisted of 20 mM MOPS, pH 7.0,25 mM β-glycerophosphate, 5 mM EGTA, 1 mM DTT, 1 mM Na3VO4, 10 mM MgCl2, 100 μM ATP, 0.2 μCi [γ-^32P]-ATP.

A549, HT29, Saos-2 = experiment: In vitro anti-proliferative activity, 72-h MTT, A549, HT29, Saos-2; format: cell-based; details: read-out: In vitro anti-proliferative activity (72-h MTT IC50), Cell lines: A549, HT29, Saos-2
in vivo = details: mouse
CDK2/cyclin E = molecular target: T3, CDK2/cyclin E (Homo sapiens, UniProt P24941); experiment: CDK2/cyclin E kinase assay (GST-Rb phosphorylation); format: biochemical; details: Table 1
T3 construct: His; made in house; host or cells: Sf9 insect cells (baculovirus)
Procedure: as §2
For use in said assay CDK2 may be obtained from available sources or produced by recombinant methods as described His-tagged CDK2/Cyclin E and CDK1/Cyclin B may be co-expressed in Sf 9 insect cells infected with the appropriate baculovirus constructs. The cells are harvested two days after infection by low speed centrifugation and the proteins purified from the insect cell pellets by Metal-chelate chromatography. Briefly, the insect cell pellet is lysed in Buffer A (10 mM Tris-HCl, pH 8.0, 150 mM NaCl, 0.02% NP40 and 5 mM, β-marcaptoethanol, 1 mM NaF. 1 mM Na3VO4 and Protease Inhibitors Coctail (Sigma) containing AEBSF, pepstatin A, E 64, bestatin, leupeptin) by sonication. The soluble fraction is cleared by centrifugation and loaded onto Ni-NTA-Agarose (Quiagen). Non bound proteins were washed off with 300 mM NaCl, 5-15 mM Imidazole in Buffer A and the bound proteins eluted with 250 mM Imidazole in Buffer A. The purified proteins are extensively dialyzed against Storage buffer (20 mM HEPES pH 7.4, 50 mM NaCl, 2 mM DTT, 1 mM EDTA, 1 mM EGTA, 0.02% NP40, 10% v/v Glycerol) aliquoted and stored at −70° C. PKC-α—6×His may be purified the same way but using different buffers—50 mM NaH2PO4, pH 8.0 and 0.05% Triton X-100 instead of Tris and NP40 respectively.

Chain of CDK7/cyclin H (P50613 whole entry, species assumed): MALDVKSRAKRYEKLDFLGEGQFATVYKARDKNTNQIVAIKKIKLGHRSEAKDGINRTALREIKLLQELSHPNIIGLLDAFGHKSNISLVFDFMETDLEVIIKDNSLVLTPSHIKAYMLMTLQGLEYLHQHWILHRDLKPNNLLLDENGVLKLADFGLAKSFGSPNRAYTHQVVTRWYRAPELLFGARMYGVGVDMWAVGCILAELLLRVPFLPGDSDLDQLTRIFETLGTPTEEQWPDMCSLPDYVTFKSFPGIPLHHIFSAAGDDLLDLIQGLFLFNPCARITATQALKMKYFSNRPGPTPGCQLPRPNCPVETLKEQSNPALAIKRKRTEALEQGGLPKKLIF
Chain of CDK7/cyclin H (P51946 whole entry partner, species assumed): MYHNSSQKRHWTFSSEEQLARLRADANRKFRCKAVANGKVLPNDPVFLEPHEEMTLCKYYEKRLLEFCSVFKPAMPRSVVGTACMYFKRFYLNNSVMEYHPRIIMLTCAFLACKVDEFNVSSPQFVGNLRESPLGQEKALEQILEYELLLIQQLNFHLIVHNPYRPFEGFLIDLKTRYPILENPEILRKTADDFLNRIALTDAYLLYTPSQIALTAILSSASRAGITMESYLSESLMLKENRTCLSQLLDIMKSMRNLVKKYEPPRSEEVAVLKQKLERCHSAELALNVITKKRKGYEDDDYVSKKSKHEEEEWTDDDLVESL
Chain of CDK4/cyclin D1 (P11802 whole entry, species assumed): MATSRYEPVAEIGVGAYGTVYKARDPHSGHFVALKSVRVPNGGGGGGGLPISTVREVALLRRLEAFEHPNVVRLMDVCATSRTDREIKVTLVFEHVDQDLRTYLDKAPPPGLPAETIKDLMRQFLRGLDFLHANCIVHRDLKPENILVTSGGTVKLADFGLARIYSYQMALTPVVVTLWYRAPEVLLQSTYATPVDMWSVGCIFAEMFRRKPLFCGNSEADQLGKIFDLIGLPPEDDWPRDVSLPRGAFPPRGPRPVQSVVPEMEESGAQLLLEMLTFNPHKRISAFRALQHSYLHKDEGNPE
Chain of CDK4/cyclin D1 (P24385 whole entry partner, species assumed): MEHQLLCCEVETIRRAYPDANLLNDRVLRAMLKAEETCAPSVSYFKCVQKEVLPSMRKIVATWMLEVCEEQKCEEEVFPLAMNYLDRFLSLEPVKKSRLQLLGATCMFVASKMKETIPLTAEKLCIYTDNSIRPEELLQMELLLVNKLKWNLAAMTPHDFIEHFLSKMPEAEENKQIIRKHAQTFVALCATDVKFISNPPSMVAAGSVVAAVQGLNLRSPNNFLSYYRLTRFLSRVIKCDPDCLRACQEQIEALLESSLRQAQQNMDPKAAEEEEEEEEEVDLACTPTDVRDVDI
T2 sequence (P63085 whole entry): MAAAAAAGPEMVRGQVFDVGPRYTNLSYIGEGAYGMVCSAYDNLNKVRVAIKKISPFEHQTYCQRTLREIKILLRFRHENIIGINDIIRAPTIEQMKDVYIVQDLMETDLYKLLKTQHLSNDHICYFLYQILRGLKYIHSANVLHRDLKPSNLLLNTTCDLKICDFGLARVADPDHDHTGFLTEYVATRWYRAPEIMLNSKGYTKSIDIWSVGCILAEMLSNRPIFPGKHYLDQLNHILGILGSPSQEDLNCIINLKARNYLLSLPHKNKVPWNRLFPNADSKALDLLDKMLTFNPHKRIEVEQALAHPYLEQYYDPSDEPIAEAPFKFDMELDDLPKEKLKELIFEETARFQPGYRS

SMILES | PK remark: carbinol metabolism [1] | IC50 (HCT116) | IC50 (KM12) | IC50 (A2780 CisR) | IC50 [2] | IC50 (CH1) | IC50 (A2780) | IC50 (HT29) | IC50 (CH1DoxR) | IC50 [3] | IC50 (CDK4/cyclin D1) | IC50 (CDK7/cyclin H) | IC50 (mouse ERK-2) | IC50 (A549, HT29, Saos-2) | AUC(0-inf) (in vivo) | half-life (in vivo) | IC50 (CDK2/cyclin E)
CC[C@@H](Nc1nc(NCc2ccccc2)c2ncn(C(C)C)c2n1)C(C)O (mixture of isomers) [7 (2RS,3R), (2RS, 3R)-3-(6-Benzylamino-9-isopropyl-9H-purin-2-ylamino)-pentan-2-ol] | Blocked carbinol metabolism | 12 µM | 19 µM | 15 µM | 13.8 µM | 17 µM | 6.6 µM | 15 µM | 12 µM | – | – | – | – | – | – | – | –
CCC(O)[C@@H](CC)Nc1nc(NCc2ccccc2)c2ncn(C(C)C)c2n1 (mixture of isomers) [Example 9, (3RS,4R)-4-(6-Benzylamino-9-isopropyl-9H-purin-2-ylamino)-hexan-3-ol] | – | – | – | – | – | – | – | – | – | 139 µM | 34 µM | 1.2 µM | 103 µM | 11 µM | – | – | –
CC[C@@H](Nc1nc(NCc2ccccc2)c2ncn(C(C)C)c2n1)C(O)C(C)C (mixture of isomers) [Example 11, (3RS,4R)-4-(6-Benzylamino-9-isopropyl-9H-purin-2-ylamino)-2-methyl-hexan-3-ol] | – | – | – | – | – | – | – | – | – | 92 µM | 28 µM | 4.4 µM | > 200 µM | 11 µM | – | – | –
CC[C@@H](Nc1nc(NCc2ccccc2)c2ncn(C(C)C)c2n1)C(O)C(C)(C)C (mixture of isomers) [Example 13, (3RS,4R)-4-(6-Benzylamino-9-isopropyl-9H-purin-2-ylamino)-2,2-dimethyl-hexan-3-ol] | – | – | – | – | – | – | – | – | – | 87 µM | > 200 µM | 3.7 µM | > 200 µM | 18 µM | – | – | –
CC[C@H](Nc1nc(NCc2ccccc2)c2ncn(C(C)C)c2n1)C(O)C(C)(C)C (mixture of isomers) [Example 14, (3RS,4S)-4-(6-Benzylamino-9-isopropyl-9H-purin-2-ylamino)-2,2-dimethyl-hexan-3-ol] | – | – | – | – | – | – | – | – | – | > 200 µM | 60 µM | 4.3 µM | > 200 µM | 22 µM | – | – | –
OC1CCCN(c2nc(Nc3ccc4c(c3)CCC4)c3ncn(C4CCCC4)c3n2)C1 (stereo not drawn) [Example 1, 1-[9-Cyclopentyl-6-(indan-5-ylamino)-9H-purin-2-yl]-piperidin-3-ol] | – | 5.7 µM | 0.34 µM | 1.1 µM | 2 µM | 1.5 µM | 2.2 µM | 1.8 µM | 1.7 µM | – | – | – | – | – | 62500 ng·h/mL | 5.5 h | 0.58 ± 0.33 µM
COc1ccc(CNc2nc(N3CCCC(O)C3)nc3c2ncn3C2CCCC2)cc1OC (stereo not drawn) [Example 2, 1-[9-Cyclopentyl-6-(3.4-dimethoxy-benzylamino)-9H-purin-2-yl]piperidin-3-ol] | – | 6.1 µM | 6.4 µM | 14 µM | 4.9 µM | 0.94 µM | 0.078 µM | 4.4 µM | 2.4 µM | – | – | – | – | – | 19500 ng·h/mL | 4.2 h | 1.84 ± 0.31 µM
CC(C)[C@H](CO)Nc1nc(Nc2cccc([N+](=O)[O-])c2)c2ncn(C(C)C)c2n1 [Example 3, (R)-2-[9-Isopropyl-6-(3-nitro-phenylamino)-9H-purin-2-ylamino]-3-methyl-butan-1-ol] | – | 2.45 µM | 1.05 µM | 2.85 µM | 2.3 µM | 2.3 µM | 1.1 µM | 4.3 µM | 1.8 µM | – | – | – | – | – | – | – | 0.33 ± 0.45 µM
CC[C@H](CO)Nc1nc(Nc2cccc([N+](=O)[O-])c2)c2ncn(C(C)C)c2n1 [Example 4, (R)-2-[9-Isopropyl-6-(3-nitro-phenlamino)-9H-purin-2-ylamino]-butan-1-ol] | – | 1.2 µM | 0.76 µM | 1.7 µM | 1.1 µM | 1.1 µM | 0.245 µM | 2.1 µM | 0.56 µM | – | – | – | – | – | – | – | 0.028 ± 0.01 µM
CC[C@H](Nc1nc(NCc2ccccc2)c2ncn(C(C)C)c2n1)[C@@H](C)O [Example 7 (2R,3S), (2R,3S)-3-(6-Benylamino-9-isopropyl-9H-purin-2-ylamino)-pentan-2-ol] | Blocked carbinol metabolism | 1.5 µM | 1.9 µM | 3.4 µM | – | 1.8 µM | 3.3 µM | 5 µM | 1.3 µM | – | – | – | – | – | – | – | –
CC[C@@H](Nc1nc(NCc2ccccc2)c2ncn(C(C)C)c2n1)[C@H](C)O [Example 7 (2S,3R), (2S, 3R)-3-(6-Benzylamino-9-isopropyl-9H-purin-2-ylamino)-pentan-2-ol] | Blocked carbinol metabolism | 5.4 µM | 5.4 µM | 3.8 µM | 6.9 µM | 5 µM | 6.4 µM | – | 4.6 µM | – | – | – | – | – | – | – | –
CCC(Nc1nc(NCc2ccccc2)c2ncn(C(C)C)c2n1)C(C)O (stereo not drawn) [Example 7] | – | – | – | – | – | – | – | – | – | > 50 µM | – | – | > 50 µM and 43 µM and 29 µM | – | – | – | –
CCC(O)[C@H](CC)Nc1nc(NCc2ccccc2)c2ncn(C(C)C)c2n1 (stereo partly drawn) [Example 10] | – | – | – | – | – | – | – | – | – | > 200 µM | – | – | – | 20 µM | – | – | –
CC[C@H](Nc1nc(NCc2ccccc2)c2ncn(C(C)C)c2n1)C(O)C(C)C (stereo partly drawn) [Example 12] | – | – | – | – | – | – | – | – | – | 83 µM | – | – | 88 µM | – | – | – | –
CC[C@@H](Nc1nc(NCc2ccccc2)c2ncn(C(C)C)c2n1)C(C)(C)O [Example 15] | – | – | – | – | – | – | – | – | – | 191 µM | 12 µM | 3.7 µM | – | 15 µM | – | – | –
CC[C@H](Nc1nc(NCc2ccccc2)c2ncn(C(C)C)c2n1)C(C)(C)O [Example 16, (S)-3-(6-Benzylamino-9-isopropyl-9H-purin-2-ylamino)-2 methyl-pentan-2-ol] | – | – | – | – | – | – | – | – | – | ≥ 200 µM | 8.5 µM | 2 µM | – | 10 µM | – | – | –
